Measurements from article PMC6502747, “Preclinical toxicology and safety pharmacology of the first-in-class GADD45β/MKK7 inhibitor and clinical candidate, DTP3” (Toxicology Reports, 2019).
pIC50: −log10 of the molar value. Read-outs that look alike come from different tables or passages of the source.

Columns and labels:
[1] = test system: Sigma receptors (non-selective); test: Sigma receptor functional assay (agonistic/antagonistic effect); format: biochemical
Excerpt: SUPPLEMENTARY FIGURE LEGENDS
Supplementary Figure 1 – Related to Figure 1. […]
Values represent the mean
percentage of variation of the response to the reference Sigma-receptor ligand in the
in the absence of any other agents. […]

HepG2 cells = test: multi-parametric cytotoxicity assay (HCS); format: cell-based, human
Experimental: assessment/genetic-toxicology/regulatory-assays.html). Briefly, the numbers of revertant colonies for each of five histidine-requiring strains of Salmonella […]
different classes of genetically active compounds, were evaluated either in the presence or absence of metabolic activation by Aroclor 1254-induced rat liver post-mitochondrial S9 fraction (Supplementary Figure 2B). DTP3 was tested at the […]
expressed as the mean fold increase in colony number for each tester strain upon exposure to DTP3 or strain-specific control compounds (CTR) relative to exposure to vehicle control, either in the presence or absence of metabolic activation (Supplementary Figure 2C). The following significance thresholds were applied to each strain: ≥1.5 folds, strain TA102; ≥2-fold, strains TA98 and TA100; ≥3-fold, […]
(http://www.cyprotex.com/toxicology/multiparametric/cytotoxicity-screening-panel), using High Content Screening (HCS). […]
were treated with a specific dye or antibody, as required by the assay. Plates were then scanned using an ArrayScan VTI automated fluorescence cell imager (Thermo Scientific Cellomics) and analysed for the following measures of toxicity: nuclear size and nuclear morphology, cell membrane permeability, mitochondrial mass, mitochondrial membrane potential (DYm), and cytochrome c release (Figure 2). […]
each compound, cytotoxicity was scored by assessing the minimum effective concentration (MEC) inducing a significant effect relative to vehicle control. […]
and positive controls, respectively. Briefly, upon formation of a stable Gigaohm (GΩ) seal between patch electrodes and individual hERG-expressing HEK-293 cells, hERG-dependent outward tail currents were measured following depolarisation of the cell membrane to […] for 2 s (activation of channels) from a holding potential of - 80 mV, and following subsequent repolarisation to -40 mV, for 3 s. […]
. Electrophysiological measurements were recorded using PatchMaster software (Version v2x73_2). […] The amount of current block was calculated as the percentage of control current. […]

CYP2C8 = CYP2C8 (Homo sapiens, UniProt P10632); conditions: read-out: CYP2C8 IC50
Excerpt: investigated in vitro, using time-dependent inhibition and catalytic induction assays
conducted at Cyprotex laboratories in accordance with in-house SOP

[2] = rat plasma
Experimental: Pooled plasma and faeces samples were prepared for metabolite profiling and
identification by sequential extraction with acetonitrile. Pooled urine samples were
centrifuged to remove particulate material. For each sample, metabolite profiles
were generated using radio-HPLC. On-line radio-detection was used for urine and
faeces, whereas off-line radio-detection was used for plasma, due to the low
radioactivity levels present in plasma samples. Selected samples were further
analysed by high resolution LC-MS(/MS) in order to characterise the most notable
Results were expressed as the mean of the indicated number of samples. The
statistical error was calculated as either standard deviation (SD) or standard error of
the mean (SEM), as indicated, according to the typology of the experiments.

Chain of CYP2C8 (P10632 whole entry): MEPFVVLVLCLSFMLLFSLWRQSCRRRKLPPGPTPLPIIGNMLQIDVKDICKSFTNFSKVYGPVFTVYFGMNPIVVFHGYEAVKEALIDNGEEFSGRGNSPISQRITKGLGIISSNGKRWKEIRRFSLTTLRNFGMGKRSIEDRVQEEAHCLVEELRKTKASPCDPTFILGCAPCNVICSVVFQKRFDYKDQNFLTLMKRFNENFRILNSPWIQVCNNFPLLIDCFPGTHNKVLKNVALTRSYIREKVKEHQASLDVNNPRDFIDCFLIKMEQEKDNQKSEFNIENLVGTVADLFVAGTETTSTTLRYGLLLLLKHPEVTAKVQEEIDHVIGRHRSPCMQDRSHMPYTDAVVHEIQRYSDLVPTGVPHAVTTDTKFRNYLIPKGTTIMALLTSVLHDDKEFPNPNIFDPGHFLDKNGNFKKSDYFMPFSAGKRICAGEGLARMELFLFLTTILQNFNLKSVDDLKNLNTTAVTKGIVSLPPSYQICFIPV

C[C@@H]1CN(CCCn2c3ccccc3c3ccccc32)C[C@H](C)N1 [Rimcazole, rimcazole]
Antagonistic Effect, Response ([1]; [Drug] 1.0E-0.5 M): -6 % of ligand binding | Antagonistic Effect, Response ([1]; [Drug] 1.0E-0.6 M): 84 % of ligand binding | Antagonistic Effect, Response ([1]; [Drug] 3.0E-0.6 M): 49 % of ligand binding

CN(C)CCCN1c2ccccc2Sc2ccc(Cl)cc21 [Chlorpromazine, chlorpromazine]
MEC Cell membrane permeability (HepG2 cells): 1.12 µM | MEC Cytochrome C release (HepG2 cells; human, 72 h): 1.30 µM | MEC Mitochondrial membrane potential (HepG2 cells; human, 72 h): 4.70 µM

Cc1ccc(C)c(OCCCC(C)(C)C(=O)O[C@@H]2O[C@H](C(=O)O)[C@@H](O)[C@H](O)[C@H]2O)c1 [gemfibrozilglucuronide]
pIC50 (CYP2C8; 0 min): 4.51 | pIC50 (CYP2C8; 30 min, + NADPH): 5.23 | pIC50 (CYP2C8; 30 min, - NADPH): 4.52

methoxy-DTP3 [P7 (methoxy DTP3)]
radio-labelled species in plasma profile ([2]; 10 m): 0.8 | radio-labelled species in plasma profile ([2]; 1 hr): 0.8

(+) SKF-10,047
Agonistic Effect, Response [1]: 48 % of ligand binding | Agonistic Effect, Response ([1]; [Drug] 1.0E-0.5 M): 17 % of ligand binding
